Literature values, collected in patent publication US20210315817A1, “C[…] SELF-EMULSION SYSTEMS FOR INFUSED COMPOSITIONS” (HEXO […]., priority 2018, published 2021).

Conditions: individual emulsifier HLB value

## polyoxyethylene sorbitan monolaurate [Tween ® 20]
  Emuls. HLB: 16.7
